In article PMC8769072, “Proteome‐scale mapping of binding sites in the unstructured regions of the human proteome” (Molecular Systems Biology, 2022):

Test system: immobilized GST-tagged bait protein domains
Test: ProP-PD phage selections (HD2 P8, sublibraries, HD2 P3, HD1 P8) with NGS and confidence level
Format: binding, human
[1] = bait AP2B1_adaptin__P63010_700_937, library HD
[2] = bait AP2B1_adaptin__P63010_700_937, library HD, mean normalised NGS counts
[3] = bait AP2B1_adaptin__P63010_700_937, library HD, mean raw NGS counts, all selections
[4] = bait MAP1LC3B_ATG8 (Q9GZQ8 2-119), HD2 library, benchmark motif instance recovered in the ProP-PD selection (TRUE/FALSE)
[5] = library HD2, bait EPS15_EH__P42566_121_215, whether the validated benchmark motif instance was recovered in the ProP-PD selection (TRUE/FALSE)
[6] = HD2 library, bait SUMO1_SUMO__P63165_1_101, known motif instance of the benchmarking set found (TRUE) or not found (FALSE) among selected peptides
[7] = bait KPNA4_Arm (O00629 68-487), HD2 library, benchmark motif instance recovered in the ProP-PD selection (TRUE/FALSE)
[8] = library HD2, bait YES1_SH3__P07947_90_152, validated benchmark motif instance, in_library_check TRUE, TRUE/FALSE = instance recovered in ProP-PD selection
[9] = bait ANKRA2_Ank__Q9H9E1_142_313, HD2 P8 selection, confidence level -4 to 4: 4 = High, 3 or 2 = Medium, 1 = Low, 0 = Filtered/Noise
[10] = bait MDM2_p53-binding-domain (Q00987 17-125), HD2 library, benchmark motif instance recovered in the ProP-PD selection (TRUE/FALSE)
[11] = library HD2, bait VASP_EVH1__P50552_1_114, validated benchmark motif instance, in_library_check TRUE, TRUE/FALSE = instance recovered in ProP-PD selection
[12] = bait PEX14_Pex14__O75381_16_84, HD2 library, whether the validated benchmark motif instance was recovered in the ProP-PD selection (TRUE/FALSE)
[13] = bait PABP-B_PABP__P11940_544_623, HD2 library, whether the validated benchmark motif instance was recovered in the ProP-PD selection (TRUE/FALSE)
[14] = bait AP2B1_adaptin__P63010_700_937, library HD2, benchmarking set of validated motif instances, TRUE = motif instance recovered in the ProP-PD selection
[15] = library HD2, bait Keap1_KELCH__Q14145_321_609, whether the validated benchmark motif instance was recovered in the ProP-PD selection (TRUE/FALSE)
[16] = bait MAP1LC3A_ATG8 (Q9H492 2-121), HD2 library, benchmark motif instance recovered in the ProP-PD selection (TRUE/FALSE)
[17] = bait MDM2_p53-binding-domain (Q00987 17-125), HD2 library, confidence level (1-4) of best matching peptide
[18] = bait MDM2_p53-binding-domain (Q00987 17-125), HD2 library, specificity score of best matching peptide
[19] = HD2 library, bait CALM1_EF-hand__P0DP23_2_149, benchmark motif instance, in_library_check FALSE, in_library_coverage 0

Substance: DVDYFGQQFDQISNRT
- HD confidence [1]: 2
- HD count proportions [2]: 0.1904
- HD mean counts [3]: 883.25

Substance: DWSNLVDAAKAYEVQR
- HD2-1mM_CaCl confidence (bait CALM1 EF-hand (P0DP23, 2-149), HD2 library selection with 1mM_CaCl, confidence level (4 = High, 2 or 3 = Medium, 1 = Low)): 2
- HD2 confidence (bait CALM1 EF-hand (P0DP23, 2-149), HD2 library selection, confidence level (4 = High, 2 or 3 = Medium, 1 = Low)): 3

Substance: DYDQSRTKVLHMSLNPTSVARQR
- motif_found (bait MAD2L1_HORMA (Q13257 1-205), HD2 library, benchmark motif instance recovered in the ProP-PD selection (TRUE/FALSE)): FALSE

Substance: DYESDDDSYEVLDLTEY
- motif_found [4]: FALSE

Substance: DYFDYESTNPFTAKFRASN
- motif_found [5]: FALSE

Substance: EASKKKVDVIDLTIESSSDE
- motif_found [6]: FALSE

Substance: EATNTTSEPSAPSQDLLDLS
- motif_found (HD2 library, bait TSG101_UEV__Q99816_1_145, known motif instance of the benchmarking set found (TRUE) or not found (FALSE) among selected peptides): FALSE

Substance: ECISSAMPKKKKPSRLKGDNE
- motif_found [7]: FALSE

Substance: EDSPLLEDWDIISPKDVIG [TBC1D25 135-139]
- motif_found (HD2 library, bait MAP1LC3A_ATG8__Q9H492_2_121, benchmark motif instance, in_library_check FALSE, in_library_coverage 0): FALSE
- motif_found (HD2 library, bait MAP1LC3B_ATG8__Q9GZQ8_2_119, benchmark motif instance, in_library_check FALSE, in_library_coverage 0): FALSE

Substance: EEARKSPTPSAPVPLTEPAA
- motif_found (library HD2, bait TSG101_UEV__Q99816_1_145, validated benchmark motif instance, in_library_check TRUE, TRUE/FALSE = instance recovered in ProP-PD selection): FALSE

Substance: EEDQILKKPLPPEPAAAPVST
- motif_found [8]: FALSE

Substance: EEEEAVAGNPFIQPDSPAP
- motif_found [5]: FALSE

Substance: EEEELDESNPFYEPKSTPP
- motif_found [5]: FALSE

Substance: EEEMEVPVLPKISLPI
- HD2 confidence [9]: 2

Substance: EETFQLSRWTPFIKDI
- HD confidence [1]: 3
- HD count proportions [2]: 0.004596
- HD mean counts [3]: 9.0

Substance: EFLSPEVFQHIWDFLEQPICSV
- motif_found [10]: FALSE

Substance: EGALGGAFPPPPPPIEESF
- motif_found [11]: FALSE

Substance: EGTATDRWYDEYHPEEDLQ
- motif_found [12]: FALSE

Substance: EKPVPTLPQFTMGPNV
- HD2 confidence [9]: 3

Substance: ELDKEIKNSFNPEAQVFMPISDPASSV
- motif_found [13]: FALSE

Substance: ELDTNDDDIVFEDFARQRLKGMKDD,DDDIVFEDFARQRL [ARRB1]
- motif_found [14]: FALSE

Substance: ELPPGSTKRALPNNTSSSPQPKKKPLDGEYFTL
- motif_found [7]: FALSE

Substance: ELSMFQLPTLNFSPEQ
- confidence (library HD, bait ANKRA2_Ank__Q9H9E1_142_313, ProP-PD peptides with disease-related mutations): 3

Substance: EPCGQRDSPPDYHLLF
- p3_HD2 confidence (bait NEDD4_WW_4_P46934_890_928, HD2 P3 library, confidence level (4 = High, 2-3 = Medium, 1 = Low)): 4
- p3_HD2 mean counts (bait NEDD4_WW_4_P46934_890_928, HD2 P3 library, mean NGS counts over replicate selections): 3356
- p3_HD2 count proportions (bait NEDD4_WW_4_P46934_890_928, HD2 P3 library, mean proportion of NGS counts): 0.1373

Substance: EPSKPAATRKRRWSAPESRK
- motif_found [7]: FALSE

Substance: EPSTTPNNWADFSSTW
- HD confidence [1]: 3
- HD2 confidence (bait AP2B1_adaptin__P63010_700_937, library HD2 P8): 4
- HD2_endomembrane confidence (bait AP2B1_adaptin__P63010_700_937, library HD2 P8 endomembrane): 4
- HD count proportions [2]: 0.0006275
- HD mean counts [3]: 1.5

Substance: EQVASKGTGLNPNAKVWQEIAPGNTDA
- motif_found [13]: FALSE

Substance: ERSGVIREVMIIEVSSSEEE
- motif_found [6]: FALSE

Substance: ESAKAADDPENGERESHTPV
- motif_found [15]: FALSE

Substance: ESEDYSQPSTSSSIIYSSQ
- motif_found (library HD2, bait USP7_MATH-TRAF__Q93009_53_206, validated benchmark motif instance, in_library_check TRUE, TRUE/FALSE = instance recovered in ProP-PD selection): FALSE

Substance: ESFGGGFADFSTLSKV
- best_specificity (bait AP2B1_adaptin__P63010_700_937, library HD2, best matching peptide): 1
- best_confidence (bait AP2B1_adaptin__P63010_700_937, library HD2, confidence level of best matching peptide (4 = High, 2 or 3 = Medium, 1 = Low)): 3

Substance: ESGSLEDDWDFLPPKKIKD
- motif_found [16]: FALSE
- motif_found [4]: FALSE

Substance: ESSNLCMPDLPHLLAF
- HD2 confidence (bait ANKRA2_Ank__Q9H9E1_142_313, library HD2 P8): 4

Substance: ETPGDGKPPALPPKQS
- p3_HD2 confidence (bait CRK_SH3_1_P46108_124_198, HD2 P3 library, confidence level (4 = High, 2-3 = Medium, 1 = Low)): 3
- p3_HD2 mean counts (bait CRK_SH3_1_P46108_124_198, HD2 P3 library, mean NGS counts over replicate selections): 437.0
- p3_HD2 count proportions (bait CRK_SH3_1_P46108_124_198, HD2 P3 library, mean proportion of NGS counts): 0.01474

Substance: ETRICKIYDSPCLPEAEAMFA
- motif_found [8]: FALSE

Substance: FADFSTLSKVNNEDPF
- HD confidence [1]: 3
- HD count proportions [2]: 0.0005532
- HD mean counts [3]: 1.25

Substance: FASKPPTTNPFL-------
- motif_found [5]: FALSE

Substance: FASQEKFFQELFDSELASQ
- motif_found [12]: FALSE

Substance: FATLPRKKNPFEESSETWD
- motif_found [5]: FALSE

Substance: FDIDMDAPETERAAVAIQSQFRKFQKKKAGSQS,DMDAPETERAAVAIQSQFRKFQKKKAGSQS---- [PCP4]
- motif_found (bait CALM1_EF-hand__P0DP23_2_149, library HD2, benchmarking set of validated motif instances, TRUE = motif instance recovered in the ProP-PD selection): FALSE

Substance: FEAQWAALEGKATVEK
- motif_found [10]: TRUE
- best_confidence [17]: 3
- best_specificity [18]: 1

Substance: FEAQWAALENKSKQRT
- motif_found [10]: TRUE
- best_confidence [17]: 3
- best_specificity [18]: 0.97

Substance: FFAQLQLDEETGEFLPIQPA
- motif_found [15]: FALSE

Substance: FGPPPQVPSRPNRAPPGVPS [DNM1]
- motif_found (bait CRK_SH3_1_P46108_124_198, library HD2, benchmarking set of validated motif instances, TRUE = motif instance recovered in the ProP-PD selection): FALSE

Substance: FITGLTRTNPFSDRTAAPG
- motif_found [5]: FALSE

Substance: FLGNGNELEWEDDTPVATAKNMPG
- motif_found (library HD2, bait KLC1_TPR__Q07866_203_497, whether the validated benchmark motif instance was recovered in the ProP-PD selection (TRUE/FALSE)): FALSE

Substance: FLKLKNAATLIQRHWRGHNCRKNYGLMRLGF [MYO7A 771-787]
- motif_found [19]: FALSE

Substance: FPTDERSWVYSPLHYS
- HD confidence (bait TLN1_PTB__Q9Y490_309_401, library HD): 3
- p3_HD2 confidence (bait TLN1_PTB__Q9Y490_309_401, library HD2 P3): 2
- p3_HD2 count proportions (bait TLN1_PTB__Q9Y490_309_401, library HD2 P3, mean normalised NGS counts): 0.001295
- p3_HD2 mean counts (bait TLN1_PTB__Q9Y490_309_401, library HD2 P3, mean raw NGS counts, all selections): 12.2
- HD2 confidence (bait TLN1_PTB__Q9Y490_309_401, library HD2 P8): 4
- HD2_nc confidence (bait TLN1_PTB__Q9Y490_309_401, library HD2 P8 nucleocytoplasmic): 3
- HD2_nc count proportions (bait TLN1_PTB__Q9Y490_309_401, library HD2 P8 nucleocytoplasmic, mean normalised NGS counts): 0.1307
- HD2_nc mean counts (bait TLN1_PTB__Q9Y490_309_401, library HD2 P8 nucleocytoplasmic, mean raw NGS counts, all selections): 5802.8
- HD count proportions (bait TLN1_PTB__Q9Y490_309_401, library HD, mean normalised NGS counts): 0.08207
- HD mean counts (bait TLN1_PTB__Q9Y490_309_401, library HD, mean raw NGS counts, all selections): 2181

Substance: FPTGSSSTNPFL-------
- motif_found [5]: FALSE

Substance: FRHRLWAVLTVQAYARGMIARRLHQRLRAEY [MYO7A 840-856]
- motif_found [19]: FALSE

Substance: FRPENEEDILVVTTQGEVE
- motif_found [16]: FALSE
- motif_found [4]: FALSE

Substance: GAQASVGSRSEGEGEAASADDG
- motif_found (HD2 library, bait TNKS_TANK-peptide-bind__O95271_174_649, known motif instance of the benchmarking set found (TRUE) or not found (FALSE) among selected peptides): FALSE

Substance: GCMKTCPLIDLEVDNGPAQ [GGA2]
- motif_found (bait CLTC_Clathrin-propeller__Q00610_1_364, library HD2, benchmarking set of validated motif instances, TRUE = motif instance recovered in the ProP-PD selection): FALSE

Substance: GDSQGRKRRQTSMTDFYHSKRRLIFSKRKP-
- motif_found [7]: FALSE

Substance: GEAWGHSSRTSPLDNV
- HD2_nucleus confidence (bait WDR5_WD_1234567_P61964_21_334, library HD2 P8 nucleus): 4

Substance: GEYVRVKLQLNPAAREFKPDVKSKPVS
- motif_found [13]: FALSE

Substance: GGFDTEPDEFSDFDRLRTALPTSG [EPN1]
- motif_found [14]: FALSE

Substance: GGMNWADLLPPPPAHP
- best_confidence (library HD2, bait VASP_EVH1__P50552_1_114, confidence level of best matching selected peptide (4 High, 2-3 Medium, 1 Low)): 3
- best_specificity (library HD2, bait VASP_EVH1__P50552_1_114, specificity score of best matching selected peptide): 0.99
- motif_found [11]: TRUE

Substance: GHPESPPRKRLKSKGSDKDF
- motif_found [7]: FALSE
